The values that follow come from PMC4364445 (Chemical Science, 2015).

Data set [1] relates to human organ tissue enzymes (liver, lung, intestine, kidney microsomes with or without cytosol). The experiment in a line: ECL enzyme/DNA array DNA damage rate, comparison across organ enzymes. Conditions: pH 7.4.
Data set [2] has as its system cyt P450 supersomes (3A4, 2A6, 3A5) with or without cytosol. The experiment in a line: ECL enzyme/DNA array DNA damage rate, comparison across cyt P450 supersomes. Format: biochemical, human. Conditions: 1 mM styrene, pH 7.4; supersomes + cytosol vs supersomes.
Data set [3] addresses T1, cyt P450 1B1 supersomes (Homo sapiens, UniProt Q16678).
T1 sequence (Q16678 1-543): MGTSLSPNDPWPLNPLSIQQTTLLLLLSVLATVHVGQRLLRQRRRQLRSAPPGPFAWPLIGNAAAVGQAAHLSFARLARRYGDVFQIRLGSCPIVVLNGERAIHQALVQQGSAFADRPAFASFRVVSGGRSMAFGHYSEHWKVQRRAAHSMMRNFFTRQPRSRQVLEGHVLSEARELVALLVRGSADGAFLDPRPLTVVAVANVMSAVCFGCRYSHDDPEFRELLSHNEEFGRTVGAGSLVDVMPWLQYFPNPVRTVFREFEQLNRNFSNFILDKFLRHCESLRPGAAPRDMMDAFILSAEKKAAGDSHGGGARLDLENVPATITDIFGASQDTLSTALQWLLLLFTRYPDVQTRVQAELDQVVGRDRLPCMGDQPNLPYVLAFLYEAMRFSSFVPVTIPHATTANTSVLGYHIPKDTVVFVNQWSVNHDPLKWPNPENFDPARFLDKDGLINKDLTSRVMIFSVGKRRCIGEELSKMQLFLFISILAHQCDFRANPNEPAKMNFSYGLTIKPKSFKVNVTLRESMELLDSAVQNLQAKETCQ
The experiment in a line: ECL enzyme/DNA array DNA damage rate, cyt P450 1B1. Format: biochemical. To be noted: pH 7.4.

Data set [4] has as its system human intestinal microsomes (HIM). The experiment in a line: Biocolloid reactor bead LC-MS/MS DNA adduct quantitation, HIM. Conditions: 250 μM 2-AAF, 4 h; organ comparison. Format: biochemical.
Data set [5] concerns male rats. To be noted: intraperitoneal, ref [60]; cited from earlier work.
Data set [6] concerns mice. To be noted: dietary administration, ref [61]; cited from earlier work.
Data set [7] concerns human organ microsomes, cytosols and cyt P450 supersomes. The experiment in a line: Biocolloid reactor bead LC-MS/MS DNA adducts, comparison across enzyme sources. Conditions: 250 μM 2-AAF, 4 h; all enzyme sources with cytosol.
For data set [8], the target named is T2, cyt P450 1A2 supersomes (Homo sapiens, UniProt P05177).
T2 sequence (P05177 2-516 limits assumed): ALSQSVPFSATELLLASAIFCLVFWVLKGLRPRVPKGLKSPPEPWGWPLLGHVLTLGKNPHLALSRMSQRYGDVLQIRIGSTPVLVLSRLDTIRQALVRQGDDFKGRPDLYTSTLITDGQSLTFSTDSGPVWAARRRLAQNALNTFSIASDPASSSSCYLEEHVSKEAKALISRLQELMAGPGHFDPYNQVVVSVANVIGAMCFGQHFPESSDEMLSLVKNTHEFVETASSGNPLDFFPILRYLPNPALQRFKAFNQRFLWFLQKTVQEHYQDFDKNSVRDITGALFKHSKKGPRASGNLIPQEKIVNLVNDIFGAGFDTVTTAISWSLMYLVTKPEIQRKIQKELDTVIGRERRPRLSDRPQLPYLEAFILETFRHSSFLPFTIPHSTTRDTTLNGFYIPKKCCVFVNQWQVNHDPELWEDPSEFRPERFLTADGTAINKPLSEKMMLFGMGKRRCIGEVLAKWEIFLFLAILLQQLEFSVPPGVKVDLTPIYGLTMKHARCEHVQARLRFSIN
The experiment in a line: ECL enzyme/DNA array DNA damage rate, cyt P450 1A2. To be noted: 250 μM 2-AAF, pH 7.4; cyt P450 1A2 compared to cyt P450s 2A6, 3A5 and 1B1. Format: biochemical.

The test system of data set [9] is rodent. Conditions: chronic dietary exposure, ref [40],[49]; cited from earlier work.

On to `C=Cc1ccccc1` [styrene], for which, in [1] (1 mM styrene, microsomes + cytosol vs microsomes), the “change of rate of DNA damage upon using microsomes and cytosol (ECL array)” value was “halved”. Further, the “decrease of rate of DNA damage when using cyt P450 supersomes and cytosol (ECL array)” value in data set [2] was determined as 10 fold. In addition, the “DNA damage activity (ECL array)” value in data set [3] (1 mM styrene) is “low activity”.

As to `CC(=O)Nc1ccc2c(c1)Cc1ccccc1-2` [2-AAF, 2-acetylaminofluorene], the “order of DNA damage rates across organs (ECL array)” value in [1] (250 μM 2-AAF, microsomes with cytosolic enzymes included) is given as “kidney > intestine > lung > liver”. In addition, the “total levels of adducts 8 and 9 (LC-MS/MS)” value in data set [4] was “highest for intestine”. Also, in data set [5], the “DNA adduct levels, liver vs bladder” value is listed as “higher levels of DNA adduct levels in liver than in bladder”. Moreover, in data set [6], the “DNA adduct levels, bladder vs liver” value is recorded as “higher DNA adduct levels in bladder than in liver”. Also, the “adduct 9 in the presence of cytosol enzymes (LC-MS/MS)” value in [7] is given as “not detected”. The “relative DNA damage rate (ECL array)” value in data set [8] was “significantly larger rate of DNA damage”. For the same molecule, the “formation of tumors, organ order” value in data set [9] is “liver > intestine > kidney”. For the same molecule, the “DNA damage-related activity (ECL array)” value in data set [3] (250 μM 2-AAF) is reported as “small”.
